Laboratory results taken from PubChem BioAssay AID1963966 (Molecular Pharmacology Branch, DTP, NCI, 2024).

Test system: 935938-334-R-J1-PDC spheroids with HUVEC/MSC, viability
Assay: Anticancer human tumor 935938-334-R-J1-PDC patient-derived small intestine adenocarcinoma cell line growth inhibition [PI3K]
Conditions: for IC50: curve of first compound; for viability, T/C: stronger effect = lower value
From the text: Combinatorial screen of targeted agents with the PI3K inhibitors inavolisib, alpelisib, duvelisib, and copanlisib in multi-cell type tumor spheroids
A high-throughput screen of multi-cell type tumor spheroids was designed to identify active combinations of targeted small molecules and PI3K pathway inhibitors. Complex spheroids include a stromal component modeled by human endothelial cells (HUVEC) and fibroblasts modeled by human mesenchymal stem cells (MSCs). The concentration ranges selected for each drug and investigational agent were based upon clinically achievable concentrations if the clinical Cmax of the agent was known.
Compounds. The drugs and investigational agents: inavolisib (NSC800729), alpelisib (NSC765974), duvelisib (NSC772469), copanlisib (NSC816437), ipatasertib (NSC767898), afuresertib (NSC778305), talazoparib (NSC767125), sapanisertib (NSC764658), selumetinib (NSC741078), tovorafenib (DAY101, NSC766906), vemurafenib (NSC761431), ravoxertinib (NSC781343), sotorasib (NSC818433), MRTX1133 (NSC 836407), abemaciclib (NSC 768073), palbociclib (NSC758247), venetoclax (NSC 766270), SY5609 (NSC837396), enzalutamide (NSC755605), and darolutamide (NSC825331), were obtained from the National Cancer Institute (NCI) Developmental Therapeutics Program Chemical Repository. The FDA-approved anticancer drug set is available from the NCI Developmental Therapeutics Program. […] The stock solutions were prepared in dimethyl sulfoxide (DMSO, Sigma-Aldrich, St. Louis, MO, cat. D2650) at 800-fold the tested concentration and stored at -70 degrees C prior to their use. All drugs and investigational agents were tested over a range starting from a high concentration at or near the clinical Cmax and decreasing in half-log increments. If the clinical Cmax for an agent had not been determined, the highest concentration tested was 10 microM.
Cell Culture. All cells were maintained in an incubator at 37 degrees C and 5% CO2 with 95% humidity. The PDC lines were cultured according to standard operating procedures established by the NCI PDMR (https://pdmr.cancer.gov/sops/default.htm). All PDCs were thawed and cultured in Matrigel-coated flasks prepared with a working solution of 1X Ham's F-12 nutrient mix, without supplementation (Invitrogen, Waltham, MA, cat. 11765054), 100 U/mL penicillin-streptomycin (Invitrogen, cat. 15140122), and 2.5% Matrigel (Corning Inc., Corning, NY, cat. 354248) for the first three passages. The 354836-022-R-J1-PDC, 475296-252-R-J1-PDC, and 997726-040-R-J2-PDC lines were cultured in 6A media, which includes advanced DMEM/F-12 (Thermo Fisher Scientific, cat. 12634028), 10 mM HEPES (Thermo Fisher Scientific, cat. 15630080), 1X GlutaMAX supplement (Thermo Fisher Scientific, cat. 35050061), 0.1 mg/mL primocin (InvivoGen, San Diego, CA, cat. ant-pm-2), 10% defined fetal bovine serum, heat inactivated (HyClone Laboratories Inc., Logan, UT, cat. SH30070.03HI), 50% L-WRN conditioned media (ATCC, cat. CRL-3276), 1.25 mM N-Acetyl-L-cysteine (Sigma-Aldrich, cat. A9165), 10 mM nicotinamide (Sigma-Aldrich, cat. N0636), 1X B-27 supplement (Thermo Fisher Scientific, cat. 17504044), 1X N-2 supplement (Thermo Fisher Scientific, cat. 17502048), and 10 microM Y-27632 dihydrochloride (Tocris Bioscience, Bristol, United Kingdom, cat. 1254). The 624824-186-R-J2-PDC line was cultured in 6C/Colon 1B media, which includes all 6A media components plus 50 ng/mL human EGF recombinant protein (Thermo Fisher Scientific, cat. PHG0311). […]
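Note: compound exposure lasted seven days before viability was read.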
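Throughout, for viability, T/C: percent of vehicle DMSO treated spheroid viability so 100% = untreated.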

For `CC(C)NCC(C(=O)N1CCN(c2ncnc3c2C(C)CC3O)CC1)c1ccc(Cl)cc1` (configuration not stated) + CC(Nc1ccc2c(c1)OCCn1cc(N3C(=O)OCC3C(F)F)nc1-2)C(N)=O, the IC50 (second compound 0.00316 µM) was 1690 nM, the IC50 (second compound 0.01 µM) was 3320 nM and the IC50 (second compound 0.0316 µM) was 811 nM. It also gave an IC50 (second compound 0.1 µM) of 651 nM, an IC50 (second compound 0.316 µM) of 724 nM and an IC50 (second compound 1 µM) of 328 nM. It also gave a viability, T/C (second compound 0.00316 µM, first compound 0.0316 µM) of 76.6%, a viability, T/C (second compound 0.00316 µM, first compound 0.1 µM) of 96.7% and a viability, T/C (second compound 0.00316 µM, first compound 0.316 µM) of 77.9%. The viability, T/C (second compound 0.00316 µM, first compound 1 µM) was 58%, the viability, T/C (second compound 0.00316 µM, first compound 3.16 µM) was 41.5% and the viability, T/C (second compound 0.00316 µM, first compound 10 µM) was 36.1%. For the same compound, the viability, T/C (second compound 0.01 µM, first compound 0.0316 µM) was 47.5%, the viability, T/C (second compound 0.01 µM, first compound 0.1 µM) was 75.7% and the viability, T/C (second compound 0.01 µM, first compound 0.316 µM) was 85%. The viability, T/C (second compound 0.01 µM, first compound 1 µM) was 65.4%, the viability, T/C (second compound 0.01 µM, first compound 3.16 µM) was 51.1% and the viability, T/C (second compound 0.01 µM, first compound 10 µM) was 28.6%. The viability, T/C (second compound 0.0316 µM, first compound 0.0316 µM) was 53.1%, the viability, T/C (second compound 0.0316 µM, first compound 0.1 µM) was 76.5% and the viability, T/C (second compound 0.0316 µM, first compound 0.316 µM) was 65.5%. It also gave a viability, T/C (second compound 0.0316 µM, first compound 1 µM) of 46.5%, a viability, T/C (second compound 0.0316 µM, first compound 3.16 µM) of 35.3% and a viability, T/C (second compound 0.0316 µM, first compound 10 µM) of 30%. The viability, T/C (second compound 0.1 µM, first compound 0.0316 µM) was 94.9%, the viability, T/C (second compound 0.1 µM, first compound 0.1 µM) was 84.1% and the viability, T/C (second compound 0.1 µM, first compound 0.316 µM) was 56.1%. The viability, T/C (second compound 0.1 µM, first compound 1 µM) was 44%, the viability, T/C (second compound 0.1 µM, first compound 3.16 µM) was 44% and the viability, T/C (second compound 0.1 µM, first compound 10 µM) was 28.3%. It also gave a viability, T/C (second compound 0.316 µM, first compound 0.0316 µM) of 55.5%, a viability, T/C (second compound 0.316 µM, first compound 0.1 µM) of 75.7% and a viability, T/C (second compound 0.316 µM, first compound 0.316 µM) of 68.3%. For the same compound, the viability, T/C (second compound 0.316 µM, first compound 1 µM) was 43.6%, the viability, T/C (second compound 0.316 µM, first compound 3.16 µM) was 23.4% and the viability, T/C (second compound 0.316 µM, first compound 10 µM) was 24.8%. For the same compound, the viability, T/C (second compound 1 µM, first compound 0.0316 µM) was 35.1%, the viability, T/C (second compound 1 µM, first compound 0.1 µM) was 52.9% and the viability, T/C (second compound 1 µM, first compound 0.316 µM) was 63.5%. For the same compound, the viability, T/C (second compound 1 µM, first compound 1 µM) was 34.1%, the viability, T/C (second compound 1 µM, first compound 3.16 µM) was 19.8% and the viability, T/C (second compound 1 µM, first compound 10 µM) was 28.6%.
